Measured values reported in PubChem BioAssay (NCI).
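GI50 = concentration required for 50% inhibition of growth. TGI marks complete inhibition of growth.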

Experiments:
Assay in all cases: growth of human tumour cells (NCI), 384-well format
CCRF-CEM leukemia = tested on: CCRF-CEM leukemia
SNB-19 CNS = tested on: SNB-19 CNS
EKVX NSCLC = tested on: EKVX NSCLC
TK-10 renal = tested on: TK-10 renal
SK-MEL-5 melanoma = tested on: SK-MEL-5 melanoma
OVCAR-4 ovarian = tested on: OVCAR-4 ovarian
A498 renal = tested on: A498 renal
NCI-H23 lung = tested on: NCI-H23 lung
786-0 renal = tested on: 786-0 renal
COLO 205 colon = tested on: COLO 205 colon
A549 NSCLC = tested on: A549 NSCLC
MALME-3M melanoma = tested on: MALME-3M melanoma
RXF 393 renal = tested on: RXF 393 renal
IGROV1 ovarian = tested on: IGROV1 ovarian
HCT-116 colon = tested on: HCT-116 colon
SK-OV-3 ovarian = tested on: SK-OV-3 ovarian
HL-60(TB) leukemia = tested on: HL-60(TB) leukemia
T-47D breast = tested on: T-47D breast
MDA-MB-435 melanoma = tested on: MDA-MB-435 melanoma
UO-31 renal = tested on: UO-31 renal
SF-268 CNS = tested on: SF-268 CNS
SF-539 CNS = tested on: SF-539 CNS
NCI-H460 NSCLC = tested on: NCI-H460 NSCLC
SW-620 colon = tested on: SW-620 colon
OVCAR-5 ovarian = tested on: OVCAR-5 ovarian
NCI-H322M lung = tested on: NCI-H322M lung

Compound: COc1ccccc1S(=O)(=O)Nc1ccc2c(c1)CN(C)C(=O)N2
- GI50 (CCRF-CEM leukemia): < 0.01 µM
- TGI (CCRF-CEM leukemia): < 0.01 µM
- GI50 (SNB-19 CNS): 0.0198 µM
- TGI (SNB-19 CNS): 20 µM
- GI50 (EKVX NSCLC): 0.0205 µM
- TGI (EKVX NSCLC): > 100 µM
- GI50 (TK-10 renal): < 0.01 µM
- TGI (TK-10 renal): > 100 µM
- GI50 (SK-MEL-5 melanoma): < 0.01 µM
- TGI (SK-MEL-5 melanoma): 0.0129 µM
- GI50 (OVCAR-4 ovarian): 0.0162 µM
- TGI (OVCAR-4 ovarian): > 100 µM
- GI50 (A498 renal): < 0.01 µM
- TGI (A498 renal): 60.7 µM
- GI50 (NCI-H23 lung): 0.0163 µM
- TGI (NCI-H23 lung): 0.0537 µM
- GI50 (786-0 renal): 0.0167 µM
- TGI (786-0 renal): 15.9 µM
- GI50 (COLO 205 colon): < 0.01 µM
- TGI (COLO 205 colon): 0.0626 µM
- GI50 (A549 NSCLC): 0.0331 µM
- TGI (A549 NSCLC): > 100 µM
- GI50 (MALME-3M melanoma): < 0.01 µM
- TGI (MALME-3M melanoma): > 100 µM
- GI50 (RXF 393 renal): < 0.01 µM
- TGI (RXF 393 renal): < 0.01 µM
- GI50 (IGROV1 ovarian): 0.0225 µM
- TGI (IGROV1 ovarian): 73.6 µM
- GI50 (HCT-116 colon): 0.0145 µM
- TGI (HCT-116 colon): 0.0773 µM
- GI50 (SK-OV-3 ovarian): < 0.01 µM
- TGI (SK-OV-3 ovarian): 7.04 µM
- GI50 (HL-60(TB) leukemia): < 0.01 µM
- TGI (HL-60(TB) leukemia): 0.0131 µM
- GI50 (T-47D breast): 17.2 µM
- TGI (T-47D breast): > 100 µM
- GI50 (MDA-MB-435 melanoma): < 0.01 µM
- TGI (MDA-MB-435 melanoma): < 0.01 µM
- GI50 (UO-31 renal): 0.0206 µM
- TGI (UO-31 renal): > 100 µM
- GI50 (SF-268 CNS): 0.0203 µM
- TGI (SF-268 CNS): 0.134 µM
- GI50 (SF-539 CNS): 0.0144 µM
- TGI (SF-539 CNS): 0.0376 µM
- GI50 (NCI-H460 NSCLC): 0.0213 µM
- TGI (NCI-H460 NSCLC): 0.0453 µM
- GI50 (SW-620 colon): 0.0311 µM
- TGI (SW-620 colon): > 100 µM
- GI50 (OVCAR-5 ovarian): 0.026 µM
- TGI (OVCAR-5 ovarian): > 100 µM
- GI50 (NCI-H322M lung): 0.0188 µM
